Measurements: US6479515B1, “Heterocyclic benzenesulphonamide compounds as bradykinine antagonists” (Fournier Industrie et Sante, priority 1999, dated 2002)
Counter-ions that a name gives are not always drawn. Like-named read-outs stand apart in the source and are kept apart here.

Columns and labels:
human B2 receptor = target: T1, human B2 receptor (Homo sapiens, UniProt P30411); experiment: competitive binding test on CHO cell membranes expressing the human B2 receptor using [3H]-bradykinin as ligand
T1 construct: expressed in transfected cells; host or cells: CHO cells (membranes)
T1 sequence (P30411 1-391): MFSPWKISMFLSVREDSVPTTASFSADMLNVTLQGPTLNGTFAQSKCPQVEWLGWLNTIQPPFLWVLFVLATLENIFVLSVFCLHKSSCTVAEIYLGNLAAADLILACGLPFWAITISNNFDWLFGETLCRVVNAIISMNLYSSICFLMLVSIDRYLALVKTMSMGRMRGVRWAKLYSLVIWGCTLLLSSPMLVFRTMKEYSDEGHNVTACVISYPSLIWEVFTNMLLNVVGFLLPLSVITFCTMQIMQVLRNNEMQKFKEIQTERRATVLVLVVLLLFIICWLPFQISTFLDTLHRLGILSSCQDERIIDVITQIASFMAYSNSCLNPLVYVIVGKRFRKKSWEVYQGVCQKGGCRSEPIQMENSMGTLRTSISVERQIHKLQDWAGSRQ
Protocol: The activity of the products according to the invention was evaluated, according to a first aspect, as a function of their aptitude to bind to the bradykinin B2 receptors. […] It is likewise known that bradykinin is amongst one of the most powerful algesic agents known. The mode of action of kinins and more particularly of bradykinin makes a coupling of the peptides to the two types of receptors called B1 and B2 respectively take place. The B2 receptor belongs to the large family of receptors with seven transmembrane domains coupled to the G proteins and seems to be more particularly involved in the field of the pathologies mentioned above. This is the reason why the products of the invention, which have the property of being able to bind to the B2 receptor, inhibit the binding of bradykinin and, consequently, suppress its harmful activity. The test employed in order to measure this property is a competitive binding test on CHO cell membranes expressing the human B2 receptor using bradykinin labelled with tritium ([^3H]-bradykinin) as ligand.
The results are expressed by the Ki value, as calculated according to the recommended method with the description of the test employed and described according to D. Pruneau et al., in Br. J. Pharmacol. 1998, 125 p 365-372.

bradykinin B2 receptor = target: T2, bradykinin B2 receptor (Homo sapiens, UniProt P30411); experiment: inhibition of the contraction of the isolated human umbilical vein in the presence of bradykinin; format: cell-based
T2 construct: from tissue; host or cells: isolated human umbilical vein
T2 sequence (P30411 1-391): T1 sequence (P30411 1-391)
Source text: This antagonist character is expressed by the value pA2, calculated according to a biological test employed in order to measure the inhibition of the contraction of the isolated human umbilical vein by the compounds according to the invention in the presence of bradykinin. The test procedure and the method of calculation of pA2 are described in the articles of D. Pruneau et al. published in Br. J. Pharmacol. 1998, 125, p 365-372 and J L. Paquet et al. Br. J. Pharmacol. 1999, 126 (in print).

[1] = isolated human umbilical vein, contraction in the presence of bradykinin, read-out: pA2 (converted)

Structure (SMILES)	Ki (human B2 receptor) [nM]	Kb (bradykinin B2 receptor; [1]) [nM]	Kb (bradykinin B2 receptor) [nM]
Cc1cc(-n2ccnc2)c2cccc(OCc3c(Cl)ccc(S(=O)(=O)N4CCC[C@H]4C(=O)NCc4ccccn4)c3Cl)c2n1 [Example 89, 1-[[2,4-Dichloro-3-[[[4-(1H-imidazol-1-yl)-2-methyl-8-quinolinyl]oxy]methyl]-phenyl]sulphonyl]-N-[(2-pyridinyl)methyl]-2(S)-pyrrolidinecarboxamide, methanesulphonate]	55	10	
CNCCCNC(=O)[C@@H]1CCCN1S(=O)(=O)c1ccc(Cl)c(COc2cccc3c(-n4ccnc4)cc(C)nc23)c1Cl [Example 123, 1-[[2,4-Dichloro-3-[[[4-(1H-imidazol-1-yl)-2-methyl-8-quinolinyl]oxy]methyl]-phenyl]sulphonyl]-N-[3-(methylamino)propyl]-2(S)-pyrrolidinecarboxamide, trifluoroacetate]	8.1		3.98
Cc1cc(-n2ccnc2)c2cccc(OCc3c(Cl)ccc(S(=O)(=O)N4CCC[C@H]4C(=O)NCC4CCN(Cc5ccccn5)CC4)c3Cl)c2n1 [Example 109, 1-[[2,4-Dichloro-3-[[[4-(1H-imidazol-1-yl)-2-methyl-8-quinolinyl]oxy]methyl]-phenyl]sulphonyl]-N-[[1-(2-pyridinylmethyl)-4-piperidinyl]methyl]-2(S)-pyrrolidinecarboxamide, methanesulphonate]	15	5.01	
Cc1cc(-n2cncn2)c2cccc(OCc3c(Cl)ccc(S(=O)(=O)N4CCC[C@H]4C(=O)NCCCN4CCCC4)c3Cl)c2n1 [Example 87, 1-[[2,4-Dichloro-3-[[[2-methyl-4-(1H-1,2,4-triazol-1-yl)-8-quinolinyl]oxy]-methyl]phenyl]sulphonyl]-N-[3-(1-pyrrolidinyl)propyl]-2(S)-pyrrolidine-carboxamide, methanesulphonate]	15	6.31	
Cc1cc(-n2ccnc2)c2cccc(OCc3c(Cl)ccc(S(=O)(=O)N4CCC[C@H]4C(=O)NCC4CCN(CCOCCO)CC4)c3Cl)c2n1 [Example 12, 1-[[2,4-Dichloro-3-[[[4-(1H-imidazol-1-yl)-2-methyl-8-quinolinyl]oxy]methyl]-phenyl]sulphonyl]-N-[[1-[2-(2-hydroxyethoxy)ethyl]-4-piperidinyl]methyl]-2(S)-pyrrolidinecarboxamide, tartrate]	0.47		2
Cc1cc(-n2ccnc2)c2cccc(OCc3c(Cl)ccc(S(=O)(=O)N4CCC[C@H]4C(=O)N(C)CCN(C)CCCCO)c3Cl)c2n1 [Example 103, 1-[[2,4-Dichloro-3-[[[4-(1H-imidazol-1-yl)-2-methyl-8-quinolinyl]oxy]methyl]-phenyl]sulphonyl]-N-methyl-N-[2-[[4-(hydroxy)butyl](methyl)amino]ethyl]-2(S)-pyrrolidinecarboxamide, methanesulphonate]	21	12.6	
Cc1cc(-n2cncn2)c2cccc(OCc3c(Cl)ccc(S(=O)(=O)N4CCC[C@H]4C(=O)NCCN(C)C)c3Cl)c2n1 [Example 83, 1-[[2,4-Dichloro-3-[[[2-methyl-4-(1H-1,2,4-triazol-1-yl)-8-quinolinyl]oxy]-methyl]phenyl]sulphonyl]-N-[2-(dimethylamino)ethyl]-2(S)-pyrrolidine-carboxamide, tartrate]	14		12.6
Cc1cc(-n2ccnc2)c2cccc(OCc3c(Cl)ccc(S(=O)(=O)N4CCC[C@H]4C(=O)NCCCN4CCCC4)c3Cl)c2n1 [Example 77, 1-[[2,4-Dichloro-3-[[[4-(1H-imidazol-1-yl)-2-methyl-8-quinolinyl]oxy]methyl]-phenyl]sulphonyl]-N-[3-(1-pyrrolidinyl)propyl]-2(S)-pyrrolidinecarboxamide, tartrate]	6.1		2.51
Cc1cc(-n2ccnc2)c2cccc(OCc3c(Cl)ccc(S(=O)(=O)N4CC[C@@H](O)C4)c3Cl)c2n1 [Example 170, 1-[[2,4-Dichloro-3-[[[4-(1H-imidazol-1-yl)-2-methyl-8-quinolinyl]oxy]methyl]-phenyl]sulphonyl]-3(R)-pyrrolidinol, tartrate]	7.8		10
